Source: ChEMBL document CHEMBL1135154, “Optimization of the beta-aminoester class of factor Xa inhibitors. Part 1: P(4) and side-chain modifications for improved in vitro potency” (Bioorg Med Chem Lett, 2002)

What was measured:
Coagulation factor X = Coagulation factor X (Homo sapiens, UniProt P00742); experiment: In vitro inhibitory activity against human Coagulation factor Xa
Prothrombin [1] = target: T1, Prothrombin (Homo sapiens, UniProt P00734); experiment: In vitro inhibitory activity against human Coagulation factor IIa
Serine protease 1 = Serine protease 1 (Homo sapiens, UniProt P07477); experiment: In vitro inhibitory activity against human trypsin
[2] = Activated partial thromboplastin times (APTT) was determined in rat plasma; type: functional
Prothrombin [3] = target: T1, Prothrombin; experiment: Ratio of human Coagulation factor IIa to that of human Coagulation factor Xa was evaluated
[4] = Activated partial thromboplastin times (APTT) was determined in human plasma; type: functional
[5] = Activated partial thromboplastin times (APTT) was determined int human plasma; type: functional

Serine protease 1, sequence (P07477 whole entry): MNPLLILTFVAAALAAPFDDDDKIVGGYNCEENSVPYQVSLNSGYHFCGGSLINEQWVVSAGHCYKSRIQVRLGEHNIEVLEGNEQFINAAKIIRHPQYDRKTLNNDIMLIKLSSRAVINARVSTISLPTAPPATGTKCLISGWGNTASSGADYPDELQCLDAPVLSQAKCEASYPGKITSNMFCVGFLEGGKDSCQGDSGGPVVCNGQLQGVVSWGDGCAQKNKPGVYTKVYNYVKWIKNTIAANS
Coagulation factor X, sequence (P00742 41-179 limits assumed): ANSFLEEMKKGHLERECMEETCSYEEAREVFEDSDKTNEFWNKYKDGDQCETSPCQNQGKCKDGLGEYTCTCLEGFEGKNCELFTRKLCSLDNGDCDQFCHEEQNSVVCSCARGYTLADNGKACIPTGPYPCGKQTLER
Coagulation factor X, sequence (P00742 235-488 limits assumed): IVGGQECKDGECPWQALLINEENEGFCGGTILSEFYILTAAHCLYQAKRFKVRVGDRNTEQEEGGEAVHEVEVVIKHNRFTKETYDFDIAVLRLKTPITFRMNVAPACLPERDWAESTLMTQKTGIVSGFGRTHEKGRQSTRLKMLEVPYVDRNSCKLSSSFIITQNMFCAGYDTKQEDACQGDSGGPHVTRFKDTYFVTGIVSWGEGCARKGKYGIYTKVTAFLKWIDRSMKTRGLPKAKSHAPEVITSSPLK

Row | SMILES | Ki (Coagulation factor X) | Ki (Prothrombin [1]) | Ki (Serine protease 1) | Ki ratio (IIa/Xa) (Prothrombin [3]) | APTT [2] | APTT [4] | APTT [5]
1 | COC(=O)[C@H](Cc1cccc(C(=N)N)c1)[C@@H](Cc1ccccc1)NC(=O)c1ccc(-c2ccccc2)cc1 | 11 nM | 709 nM | 75 nM | – | – | – | –
2 | COC(=O)[C@H](Cc1cccc(C(=N)N)c1)[C@@H](CC(C)C)NC(=O)c1ccc(-c2cccc(CN)c2)cc1 | 0.4 nM | 990 nM | 38 nM | – | – | – | –
3 | COC(=O)[C@H](Cc1cccc(C(=N)N)c1)[C@H](NC(=O)c1ccc(-c2cccc(CN)c2)cc1)C(C)C | 8 nM | > 3950 nM | 300 nM | – | – | – | –
4 | COC(=O)[C@H](Cc1cccc(C(=N)N)c1)[C@@H](CC1CCCCC1)NC(=O)c1ccc(-c2cccc(CN)c2)cc1 | 4 nM | 650 nM | 36 nM | – | – | – | –
5 | COC(=O)[C@H](Cc1cccc(C(=N)N)c1)[C@@H](C)NC(=O)c1ccc(-c2ccc(C(N)=O)cc2)cc1 | 2 nM | > 4000 nM | 42 nM | – | – | – | –
6 | CC[C@@H](NC(=O)c1ccc(-c2cccc(CN)c2)cc1)[C@@H](Cc1cccc(C(=N)N)c1)C(=O)OC | 0.7 nM | 2100 nM | 63 nM | – | – | – | –
7 | COC(=O)[C@H](Cc1cccc(C(=N)N)c1)[C@@H](C)NC(=O)c1ccc(-c2cccc(CN(C)C)c2)cc1 | 1 nM | 2660 nM | 95 nM | – | – | – | –
8 | COC(=O)[C@H](Cc1cccc(C(=N)N)c1)[C@@H](CCc1ccccc1)NC(=O)c1ccc(-c2ccccc2)cc1 | 21 nM | 810 nM | 67 nM | – | – | – | –
9 | COC(=O)[C@H](Cc1cccc(C(=N)N)c1)[C@@H](/C=C/c1ccccc1)NC(=O)c1ccc(-c2ccccc2)cc1 | 9.4 nM | 954 nM | – | – | – | – | –

Second part, led by results:

Row | Ki (Coagulation factor X) | Ki (Prothrombin [1]) | Ki (Serine protease 1) | Ki ratio (IIa/Xa) (Prothrombin [3]) | SMILES | APTT [2] | APTT [4] | APTT [5]
10 | 20 nM | > 3950 nM | 230 nM | – | COC(=O)[C@@H](CNC(=O)c1ccc(-c2ccccc2)cc1)Cc1cccc(C(=N)N)c1 | – | – | –
11 | 5.3 nM | – | 69 nM | ~3250 | COC(=O)[C@H](Cc1cccc(C(=N)N)c1)[C@@H](C)NC(=O)c1ccc(-c2ccccc2)cc1 | 5.05 µM | 3.9 µM | –
12 | 69 nM | > 4000 nM | – | – | COC(=O)[C@H](Cc1cccc(C(=N)N)c1)[C@@H](C)NC(=O)c1ccc(-c2ccc(C(=O)O)cc2)cc1 | – | – | –
13 | > 1200 nM | > 4000 nM | > 2900 nM | – | CCOC(=O)NCc1cccc(-c2ccc(C(=O)N[C@H](C)[C@@H](Cc3cccc(C(=N)N)c3)C(=O)OC)cc2)c1 | – | – | –
14 | – | > 4000 nM | 90 nM | – | COC(=O)[C@H](Cc1cccc(C(=N)N)c1)[C@@H](C)NC(=O)c1ccc(-c2cccc(C(N)=O)c2)cc1 | – | – | –
15 | – | – | 69 nM | – | COC(=O)[C@H](Cc1cccc(C(=N)N)c1)[C@@H](C)NC(=O)c1ccc(-c2cccc(CN)c2)cc1 | 1.7 µM | – | 0.33 µM
